Experimental data taken from article PMC7054760, “Structural and biochemical evaluation of bisubstrate inhibitors of protein arginine N-methyltransferases PRMT1 and CARM1 (PRMT4)” (Biochemical Journal, 2020).
Read-outs that look alike come from different tables or passages of the source.

T1: CARM1_135–479 (Homo sapiens, UniProt Q86X55)
T1 construct: human CARM1, residues 135 to 479; MBP (N, cleaved yes); linker and TEV site […]; (N, cleaved yes); made in house; host or cells: E. coli BL21-CodonPlus (DE3)-RIL
T1 sequence (Q86X55 135-479): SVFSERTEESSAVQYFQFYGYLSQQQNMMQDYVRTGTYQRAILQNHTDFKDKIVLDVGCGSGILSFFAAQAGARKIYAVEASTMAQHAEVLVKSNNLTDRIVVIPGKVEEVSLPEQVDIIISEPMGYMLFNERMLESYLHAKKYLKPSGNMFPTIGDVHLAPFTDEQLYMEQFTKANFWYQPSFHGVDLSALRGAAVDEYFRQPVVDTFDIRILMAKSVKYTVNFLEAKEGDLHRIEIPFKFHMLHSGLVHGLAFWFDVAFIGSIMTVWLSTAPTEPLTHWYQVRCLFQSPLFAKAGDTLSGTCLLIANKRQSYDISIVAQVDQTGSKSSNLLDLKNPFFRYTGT

T2: human CARM1 (CARM1_135–479) (Homo sapiens, UniProt Q86X55)
T2 sequence (Q86X55 135-479): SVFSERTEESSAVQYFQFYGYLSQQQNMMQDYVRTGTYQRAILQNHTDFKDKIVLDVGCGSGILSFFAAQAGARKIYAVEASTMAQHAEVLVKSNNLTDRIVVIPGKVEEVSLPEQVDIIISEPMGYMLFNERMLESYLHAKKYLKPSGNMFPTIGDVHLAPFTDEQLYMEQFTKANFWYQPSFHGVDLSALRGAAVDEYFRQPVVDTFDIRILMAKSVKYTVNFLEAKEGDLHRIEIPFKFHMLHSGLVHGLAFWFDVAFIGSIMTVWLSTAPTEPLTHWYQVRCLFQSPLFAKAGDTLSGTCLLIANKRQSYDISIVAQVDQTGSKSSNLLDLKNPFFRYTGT

T3: CARM1 N161E (Homo sapiens, UniProt Q86X55, N161E)
T3 sequence (Q86X55 135-479 N161E): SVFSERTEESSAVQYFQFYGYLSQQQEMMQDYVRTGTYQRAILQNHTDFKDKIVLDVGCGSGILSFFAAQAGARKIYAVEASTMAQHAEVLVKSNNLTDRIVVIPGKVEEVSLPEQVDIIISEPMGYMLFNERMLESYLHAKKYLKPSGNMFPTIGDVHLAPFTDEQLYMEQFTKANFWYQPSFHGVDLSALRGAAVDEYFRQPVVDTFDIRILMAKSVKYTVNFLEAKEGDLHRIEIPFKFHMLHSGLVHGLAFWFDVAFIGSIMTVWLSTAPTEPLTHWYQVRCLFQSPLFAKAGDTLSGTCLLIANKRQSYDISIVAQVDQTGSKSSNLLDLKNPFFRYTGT

T4: CARM1 N265Y (Homo sapiens, UniProt Q86X55, N265Y)
T4 sequence (Q86X55 135-479 N265Y): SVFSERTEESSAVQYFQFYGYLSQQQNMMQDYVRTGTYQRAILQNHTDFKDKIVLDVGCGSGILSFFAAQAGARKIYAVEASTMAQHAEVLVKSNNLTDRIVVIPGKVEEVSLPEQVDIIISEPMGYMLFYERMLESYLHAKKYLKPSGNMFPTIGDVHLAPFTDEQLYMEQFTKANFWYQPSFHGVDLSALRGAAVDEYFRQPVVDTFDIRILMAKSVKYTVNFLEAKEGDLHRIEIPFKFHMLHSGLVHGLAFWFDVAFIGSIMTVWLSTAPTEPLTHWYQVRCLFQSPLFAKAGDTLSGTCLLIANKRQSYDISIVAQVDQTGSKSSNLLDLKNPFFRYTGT


What was measured:
CARM1 = conditions: cited from earlier work
[1] = test system: multiple myeloma xenograft model; design: method as in PMID 29269946; conditions: cited from earlier work
[2] = molecular target: human PRMT1 (PRMT1_22–361) (Homo sapiens, UniProt Q99873); assay: Isothermal titration calorimetry (ITC) with PRMT1; format: binding; conditions: for -T∆S, PRMT1: calculated indirectly
CARM1_135–479 = molecular target: T1, CARM1_135–479; assay: Radiometric methylation assay, CARM1 with H3(3–31) and [methyl-3H]-SAM; format: biochemical; conditions: 0.23 µM [3H]-SAM
PRMT1_22–361 = PRMT1_22–361 (Homo sapiens, UniProt Q99873); assay: Radiometric methylation assay, PRMT1 with H4(1–21) and [methyl-3H]-SAM; format: biochemical; conditions: 160 nM PRMT1, 40 µM H4(1–21), 0.23 µM [3H]-SAM, 30°C, 60 min; read-out: IC50 (95% confidence interval), PRMT1
[3] = molecular target: T2, human CARM1 (CARM1_135–479); assay: Isothermal titration calorimetry (ITC) with CARM1 catalytic domain; format: binding; conditions: for -T∆S, CARM1: calculated indirectly; for ∆G, CARM1: calculated indirectly from best-fit Kd and ∆H; for Binding more strongly to CARM1 over PRMT1 (as judged by ITC): ratio of Kd values PRMT1/CARM1
CARM1 N161E = molecular target: T3, CARM1 N161E; assay: ITC with CARM1 N161E mutant; conditions: for N ± standard error, CARM1 N161E / ∆H ± standard error, CARM1 N161E / -T∆S, CARM1 N161E / ∆G, CARM1 N161E: ITC; for -T∆S, CARM1 N161E / ∆G, CARM1 N161E: calculated indirectly
CARM1 N265Y = molecular target: T4, CARM1 N265Y; assay: ITC with CARM1 N265Y mutant; conditions: for N ± standard error, CARM1 N265Y / ∆H ± standard error, CARM1 N265Y / -T∆S, CARM1 N265Y / ∆G, CARM1 N265Y: ITC; for -T∆S, CARM1 N265Y / ∆G, CARM1 N265Y: calculated indirectly
other methyltransferases = test system: other methyltransferases; design: method as in PMID 29719619; conditions: cited from earlier work
[4] = molecular target: the molecule itself; assay: crystal structure; CARM1(135-479) co-crystallised with small-molecule inhibitors 4, 5, 6 and 7; sitting-drop vapour diffusion, 20°C; space group P2(1)2(1)2
[5] = 320 nM CARM1, 120 µM H3(3–31), read-out: IC50 (95% confidence interval), CARM1
[6] = ITC, 25°C, read-out: Kd ± standard error, CARM1
[7] = ITC, Table 2, wild-type, read-out: Kd ± standard error from curve fitting, CARM1 WT

human PRMT1 (PRMT1_22–361), sequence (Q99873 32-371): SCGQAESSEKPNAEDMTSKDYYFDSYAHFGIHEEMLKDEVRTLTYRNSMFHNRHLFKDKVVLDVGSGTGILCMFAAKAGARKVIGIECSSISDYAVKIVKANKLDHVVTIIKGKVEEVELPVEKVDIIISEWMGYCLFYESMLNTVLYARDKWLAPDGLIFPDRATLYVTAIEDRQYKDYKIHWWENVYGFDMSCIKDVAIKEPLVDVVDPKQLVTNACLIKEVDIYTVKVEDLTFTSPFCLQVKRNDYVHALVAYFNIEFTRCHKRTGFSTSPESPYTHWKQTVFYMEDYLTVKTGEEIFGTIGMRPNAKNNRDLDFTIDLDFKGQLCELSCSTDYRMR
PRMT1_22–361, sequence (Q99873 32-371): as above

Molecule | IC50 (CARM1_135–479; [5]) [nM] | N (stoichiometry) ± standard error from curve fitting, CARM1 ([3]; ITC) | ∆H ± standard error from curve fitting, CARM1 ([3]; ITC) [kcal/mol] | Kd [3, 6] [nM] | -T∆S, CARM1 ([3]; ITC) [kcal/mol] | ∆G, CARM1 ([3]; ITC) [kcal/mol] | Kd (CARM1 N161E) [nM] | Kd [3, 7] [nM] | Kd (CARM1 N265Y) [nM] | N ± standard error, CARM1 N265Y (CARM1 N265Y) | ∆H ± standard error, CARM1 N265Y (CARM1 N265Y) [kcal/mol] | -T∆S, CARM1 N265Y (CARM1 N265Y) [kcal/mol] | ∆G, CARM1 N265Y (CARM1 N265Y) [kcal/mol] | N ± standard error, CARM1 N161E (CARM1 N161E) | ∆H ± standard error, CARM1 N161E (CARM1 N161E) [kcal/mol] | -T∆S, CARM1 N161E (CARM1 N161E) [kcal/mol] | ∆G, CARM1 N161E (CARM1 N161E) [kcal/mol] | further results
CNC[C@@H](O)COc1ccc(Cl)c(-c2nc(-c3c(C)noc3C)c(C)c(N3CC4(CCN(C(=O)OC)CC4)C3)n2)c1 [EPZ022302/EZM2302] | – | – | – | – | – | – | – | – | – | – | – | – | – | – | – | – | – | IC50 (CARM1; read-out: CARM1 inhibitor potency): […]; Anti-tumour activity in vivo [1]: anti-tumour activity in vivo
N=C(N)NCCCN(CCCN)C[C@H]1O[C@@H](n2cnc3c(N)ncnc32)[C@H](O)[C@@H]1O [Inhibitor 4] | 2300 | 0.481 ± 0.0062 | -24.6 ± 0.633 | 3320 ± 335 | 17.2 | -7.48 | – | – | – | – | – | – | – | – | – | – | – | N (stoichiometry) ± standard error from curve fitting, PRMT1 [2]: 0.519 ± 0.0082; ∆H ± standard error from curve fitting, PRMT1 ([2]; 10: competition experiment): -16 ± 0.77 kcal/mol; Kd ([2]; 25°C, direct titration, 7: stoichiometry fixed to 0.5, read-out: Kd ± standard error, PRMT1): 10200 ± 996 nM; ∆G, PRMT1 ([2]; calculated indirectly from best-fit Kd and ∆H, 10: competition experiment): -6.81 kcal/mol; -T∆S, PRMT1 ([2]; 10: competition experiment): 9.2 kcal/mol; IC50 (PRMT1_22–361): 7200 nM
N=C(N)NCCCCCN(CC[C@H](N)C(=O)O)C[C@H]1O[C@@H](n2cnc3c(N)ncnc32)[C@H](O)[C@@H]1O [Inhibitor 7] | 24100 | 0.648 ± 0.032 | -18.6 ± 2.31 | 38100 ± 9610 | 12.5 | -6.02 | 8180 ± 482 | 38100 ± 9610 | – | – | – | – | – | – | – | – | – | –
NCCCN(CCCNc1ncccn1)C[C@H]1O[C@@H](n2cnc3c(N)ncnc32)[C@H](O)[C@@H]1O [Inhibitor 8] | 700 | 0.529 ± 0.0042 | -29.6 ± 0.445 | 2300 ± 162 | 22 | -7.7 | 1110 ± 201 | 2300 ± 162 | 5180 ± 1860 | 0.698 ± 0.051 | -15 ± 2.01 | 7.82 | -7.22 | 0.745 ± 0.012 | -27 ± 0.906 | 18.9 | -8.13 | –
NCCCN(CCCNc1ccccn1)C[C@H]1O[C@@H](n2cnc3c(N)ncnc32)[C@H](O)[C@@H]1O [Inhibitor 9] | 300 | 0.529 ± 0.025 | -20.6 ± 1.77 | 1140 ± 411 | 12.5 | -8.13 | 354 ± 34 | 1140 ± 411 | 3260 ± 458 | 1.07 ± 0.035 | -14.8 ± 0.803 | 7.31 | -7.48 | 0.914 ± 0.005 | -20.7 ± 0.28 | 11.9 | -8.8 | Binding more strongly to CARM1 over PRMT1 (as judged by ITC) [3]: ~15 fold
Nc1ncnc2c1ncn2[C@@H]1O[C@H](CN(CCCNc2ccccn2)CC[C@H](N)C(=O)O)[C@@H](O)[C@H]1O [Inhibitor 10] | – | 0.536 ± 0.0079 | -17.5 ± 0.459 | – | 9.35 | -8.13 | 181 ± 17 | – | 143000 ± 75900 | – | – | – | – | 1.02 ± 0.004 | -22.5 ± 0.232 | 13.3 | -9.2 | IC50 (CARM1_135–479; IC50 (95% confidence interval), CARM1, 320 nM CARM1, 120 µM H3(3–31)): 800 nM; Kd ([3]; Kd ± standard error from curve fitting, CARM1 WT, ITC, Table 2, wild-type): 1110 ± 132 nM; Kd ([3]; Kd ± standard error, CARM1, ITC, 25°C): 1110 ± 132 nM; Binding more strongly to CARM1 over PRMT1 (as judged by ITC) [3]: ~40 fold
Nc1ncnc2c1ncn2[C@@H]1O[C@H](CSCC[C@H](N)C(=O)O)[C@@H](O)[C@H]1O [SAH, S-Adenosylhomocysteine, reference compound] | – | 0.549 ± 0.0086 | -35.1 ± 1.1 | – | 27 | – | – | – | – | 0.737 ± 0.004 | -23.7 ± 0.251 | 15.8 | -7.96 | 0.692 ± 0.0047 | -29.9 ± 0.44 | 20.6 | -9.39 | N (stoichiometry) ± standard error from curve fitting, PRMT1 [2]: 0.485 ± 0.0037; ∆H ± standard error from curve fitting, PRMT1 ([2]; 10: competition experiment): -23.4 ± 0.335 kcal/mol; -T∆S, PRMT1 ([2]; 10: competition experiment): 15 kcal/mol
catalytic domain of human CARM1, residues 135 to 479 (domain or fragment, UniProt Q86X55 135-479, looked up, MBP and the linker removed with TEV protease; also called CARM1_(135–479); CARM1 catalytic domain; not shown: MBP, N-terminal, cleaved) SVFSERTEESSAVQYFQFYGYLSQQQNMMQDYVRTGTYQRAILQNHTDFKDKIVLDVGCGSGILSFFAAQAGARKIYAVEASTMAQHAEVLVKSNNLTDRIVVIPGKVEEVSLPEQVDIIISEPMGYMLFNERMLESYLHAKKYLKPSGNMFPTIGDVHLAPFTDEQLYMEQFTKANFWYQPSFHGVDLSALRGAAVDEYFRQPVVDTFDIRILMAKSVKYTVNFLEAKEGDLHRIEIPFKFHMLHSGLVHGLAFWFDVAFIGSIMTVWLSTAPTEPLTHWYQVRCLFQSPLFAKAGDTLSGTCLLIANKRQSYDISIVAQVDQTGSKSSNLLDLKNPFFRYTGT | – | – | – | – | – | – | – | – | – | – | – | – | – | – | – | – | – | binding result [4]: binds
